For this experiment, the target named is hTRPV3 (Homo sapiens (Human), UniProt Q8NET8). Nature of the experiment: Whole-cell patch clamp, hTRPV3 Phase 1 / Phase 2 currents. In kind it is cell-based. The gist of the method:
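Whole-cell recordings on induced TRPV3 cells replated on coverslips, held at −40 mV with 400 ms ramps from −120 to +100 mV every 5 s; currents read at −80 and +80 mV. Ringer's external solution; current activated by heating to ≥28 °C or 20 μM 2-APB.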
(In general: The patch-clamp technique gives a direct electrical read-out from membranes.)

The mark [1] stands for this setting: Phase 1 current, human TRPV3, read-out: hTRPV3 (nM) Phase 1.
[2] abbreviates: Phase 1 current, inward, whole-cell patch clamp, read-out: hTRPV3 Patch P1 Inwd.
Setting [3] is: Phase 1 current, read-out: hTRPV3 (nM) (Phase 1).
Where [4] appears, read: Phase 2 current, inward, whole-cell patch clamp, read-out: hTRPV3 Patch P2 Inwd.
Setting [5] is: Phase 2 current, read-out: hTRPV3 (nM) (Phase 2).

Several values for one entry are separate records, joined by “and”; a condition that tells them apart may be missing. Equal entries are not always repeated. Structures can show the parent of a compound that is named as a salt. Where two headings read alike, the source gives them in different places.

Sequence of hTRPV3 (Q8NET8 whole entry): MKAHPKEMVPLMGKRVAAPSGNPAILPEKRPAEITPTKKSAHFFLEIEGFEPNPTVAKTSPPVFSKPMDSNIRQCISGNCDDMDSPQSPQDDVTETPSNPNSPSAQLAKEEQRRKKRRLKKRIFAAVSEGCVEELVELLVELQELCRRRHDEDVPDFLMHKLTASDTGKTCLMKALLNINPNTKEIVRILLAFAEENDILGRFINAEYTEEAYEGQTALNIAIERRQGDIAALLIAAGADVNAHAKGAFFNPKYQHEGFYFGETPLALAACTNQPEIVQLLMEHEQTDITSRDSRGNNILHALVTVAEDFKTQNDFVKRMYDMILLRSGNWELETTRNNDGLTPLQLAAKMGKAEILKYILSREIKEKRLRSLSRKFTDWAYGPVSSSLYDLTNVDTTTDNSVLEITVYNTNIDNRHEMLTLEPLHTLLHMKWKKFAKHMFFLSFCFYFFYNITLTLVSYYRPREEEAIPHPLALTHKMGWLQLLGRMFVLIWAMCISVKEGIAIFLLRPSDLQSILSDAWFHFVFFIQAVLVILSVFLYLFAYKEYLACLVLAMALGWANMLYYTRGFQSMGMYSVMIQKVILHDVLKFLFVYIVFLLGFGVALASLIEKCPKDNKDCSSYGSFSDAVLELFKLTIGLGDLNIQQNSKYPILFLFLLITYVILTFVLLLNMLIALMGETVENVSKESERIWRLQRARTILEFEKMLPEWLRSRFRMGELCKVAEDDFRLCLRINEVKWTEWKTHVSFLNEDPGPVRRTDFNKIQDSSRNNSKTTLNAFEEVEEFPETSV

Turning to `O=C(c1ccc(Cl)cn1)N1CCC(c2ccc(-c3ccccc3)nc2CO)C1` (centres unmarked) [Compound 2-82], the IC50 was 836 nM under setting [1] and 100 to 1000 nM under setting [2].

As to `CCc1ccccc1-c1ccc(N2CC[C@H](Oc3ccc(Cl)cn3)C2)c(CO)n1` [Compound 1-201, (S)-(3-(3-(5-chloropyridin-2-yloxy)pyrrolidin-1-yl)-6-(2-ethylphenyl)pyridin-2-yl)methanol], the IC50 is over 1000 nM under setting [2] and over 3200 nM under setting [3].

`OCCCc1cc(-c2ccccc2)ccc1N1CC[C@H](Oc2ncccc2C(F)(F)F)C1` [Compound 1-170, (S)-3-(4-(3-(3-(trifluoromethyl)pyridin-2-yloxy)pyrrolidin-1-yl)biphenyl-3-yl)propan-1-ol]: the IC50 is, setting by setting: under setting [4], 100 to 1000 nM; under setting [5], 551 nM.

Consider `CCc1ccccc1Oc1ccc(N2CC[C@H](Oc3ccc(C#N)cn3)C2)c(CCO)c1` [Compound 1-361], for which the IC50 is, setting by setting: under setting [2], 100 to 1000 nM; under setting [3], 117 nM.

Turning to `CCc1ccccc1Oc1ccc(N2CC[C@H](Oc3ccccn3)C2)c(CCO)c1` [Compound 1-335], the IC50 by setting is: under setting [2], 10 to 100 nM; under setting [3], 66.3 nM.

On to `OCc1nc(-c2ccccc2)ccc1N1CC[C@H](Oc2nc(C(F)(F)F)cs2)C1` [Compound 1-396, (S)-(6-phenyl-3-(3-(4-(trifluoromethyl)thiazol-2-yloxy)pyrrolidin-1-yl)pyridin-2-yl)methanol], for which the IC50 by setting is: under setting [2], over 1000 nM; under setting [3], 1130 nM; under setting [4], over 1000 nM; under setting [5], 2900 nM.

Take `Cc1ccccc1-c1ccc(N2CC[C@H](Oc3ccc(C(F)(F)F)cn3)C2)c(CCCO)c1` [Compound 1-176, (S)-3-(2′-methyl-4-(3-(5-(trifluoromethyl)pyridin-2-yloxy)pyrrolidin-1-yl)biphenyl-3-yl)propan-1-ol]: the IC50 is over 1000 nM under setting [2], over 3200 nM under setting [3], over 1000 nM under setting [4] and 2550 nM under setting [5].

Consider `O=C(c1ccc(F)cc1)c1ccc(C2CCN(C(=O)c3ncccc3Cl)C2)c(CO)c1` (centres unmarked) [Compound 2-10, (4-(1-(3-chloropicolinoyl)pyrrolidin-3-yl)-3-(hydroxymethyl)phenyl)(4-fluorophenyl)methanone], for which the IC50 was over 3200 nM under setting [1] and over 1000 nM under setting [2].

Regarding `COCc1ccccc1Oc1ccc(N2CC[C@H](Oc3ccc(F)cn3)C2)c(CCO)c1` [Compound 1-341, (S)-2-(2-(3-(5-fluoropyridin-2-yloxy)pyrrolidin-1-yl)-5-(2-(methoxymethyl)phenoxy)phenyl)ethanol], the IC50 is, setting by setting: under setting [2], 100 to 1000 nM; under setting [3], 877 nM; under setting [4], 100 to 1000 nM; under setting [5], 748 nM.

As for `NC(=O)c1cc(-c2ccccc2)ccc1N1CCC(Oc2ccc3ccccc3n2)C1=O` (centres unmarked) [Compound 1-123, 4-(2-oxo-3-(quinolin-2-yloxy)pyrrolidin-1-yl)biphenyl-3-carboxamide], the IC50 is over 1000 nM under setting [2] and over 3200 nM under setting [3].

On to `COc1ccccc1Oc1ccc(N2CC[C@H](Oc3ncccc3F)C2)c(CO)c1` [Compound 1-346, (S)-(2-(3-(3-fluoropyridin-2-yloxy)pyrrolidin-1-yl)-5-(2-methoxyphenoxy)phenyl)methanol], for which the IC50 reads like this: under setting [2], 100 to 1000 nM; under setting [3], 612 nM.

As for `CCc1ccccc1-c1ccc(C2CCN(C(=O)c3ncccc3F)C2)c(CO)c1` (centres unmarked) [Compound 2-54, (3-(2′-ethyl-3-(hydroxymethyl)biphenyl-4-yl)pyrrolidin-1-yl)(3-fluoropyridin-2-yl) methanone], the IC50 reads like this: under setting [1], 91.3 nM; under setting [2], 10 to 100 nM.

With `CC(C)c1ccccc1Oc1ccc(C2CCN(C(=O)Cc3ncccc3Cl)C2)c(CO)c1` (centres unmarked) [Compound 2-117], the IC50 runs as follows: under setting [1], about 3500 nM; (Phase 2 current, human TRPV3, read-out: hTRPV3 (nM) Phase 2) 2620 nM.

As for `N#Cc1ccccc1N1CCC(Oc2ccc(C(F)(F)F)cn2)C1` (centres unmarked) [Compound 1-5], the IC50 was over 1000 nM under setting [2] and over 1000 nM under setting [4].

Take `COCc1ccc(C(=O)c2ccc(N3CC[C@H](Oc4ncccc4Cl)C3)c(CO)c2)cc1` [Compound 1-286]: the IC50 under setting [2] is 100 to 1000 nM and the IC50 under setting [3] amounted to 607 nM.

Consider `CCOC(=O)c1nc(-c2ccccc2)sc1N1CC[C@H](Oc2ccc(C(F)(F)F)cn2)C1` [Compound 1-206, (S)-ethyl 2-phenyl-5-(3-(5-(trifluoromethyl)pyridin-2-yloxy)pyrrolidin-1-yl)thiazole-4-carboxylate], for which the IC50 was over 1000 nM under setting [2] and 2670 nM under setting [3].

`NC(=O)c1cc(-c2ccccc2)ccc1N1CC[C@H](Nc2ncccc2Cl)C1` [Compound 1-373, (S)-4-(3-(3-chloropyridin-2-ylamino)pyrrolidin-1-yl)biphenyl-3-carboxamide]: the IC50 under setting [4] is 100 to 1000 nM and the IC50 under setting [5] stood at 669 nM.

In the case of `OCc1cc(Br)ccc1N1C[C@@H](O)[C@H](Oc2ccc(C(F)(F)F)cn2)C1` [Compound 1-284], the IC50 reads like this: under setting [2], over 1000 nM; under setting [3], 1630 nM.

Turning to `CC(C)c1ccc(Oc2ccc(N3CC[C@H](Oc4ccccn4)C3)c(CO)c2)cc1` [Compound 1-325], the “hTRPV3 (nM) (Phase 1)” value (Phase 1 current) is given as “Incomplete Block (Phase 1)”.

Turning to `O=C(c1ccc(F)cc1)c1ccc(N2CC[C@H](Oc3ncccc3Cl)C2)c(CCO)c1` [Compound 1-294, (S)-(4-(3-(3-chloropyridin-2-yloxy)pyrrolidin-1-yl)-3-(2-hydroxyethyl)phenyl)(4-fluorophenyl)methanone], the IC50 under setting [2] fell in the range of 100 to 1000 nM, the IC50 under setting [3] was determined as 511 nM, the IC50 under setting [4] was in the range of 100 to 1000 nM and the IC50 under setting [5] was determined as 502 nM.

In the case of `O=C(c1cscn1)N1CCC(c2ccc(-c3ccccc3C3CC3)cc2CO)C1` (centres unmarked) [Compound 2-111, (3-(2′-cyclopropyl-3-(hydroxymethyl)biphenyl-4-yl)pyrrolidin-1-yl)(thiazol-4-yl)methanone], the IC50 was 194 nM under setting [1] and 100 to 1000 nM under setting [2].

As for `CCc1ccccc1-c1ccc(C2CCN(C(=O)c3cc(OC)ccn3)C2)c(CO)c1` (centres unmarked) [Compound 2-63, (3-(2′-ethyl-3-(hydroxymethyl)biphenyl-4-yl)pyrrolidin-1-yl)(4-methoxypyridin-2-yl)methanone], the IC50 is 235 nM under setting [1] and 100 to 1000 nM under setting [2].

As for `NC(=O)c1cc(-c2ccncc2)ccc1N1CC[C@@H](Oc2ccccn2)C1` [Compound 1-79, (R)-2-(3-(pyridin-2-yloxy)pyrrolidin-1-yl)-5-(pyridin-4-yl)benzamide], the IC50 runs as follows: under setting [2], over 1000 nM; under setting [3], over 3200 nM; under setting [4], over 1000 nM; under setting [5], over 3200 nM.

As for `CC(C)(C)OC(=O)NCc1ccc(-c2ccc(N3CC[C@H](Oc4ccc(C(F)(F)F)cn4)C3)c(CO)c2)cc1` [Compound 1-269, (S)-tert-butyl (3′-(hydroxymethyl)-4′-(3-(5-(trifluoromethyl)pyridin-2-yloxy)pyrrolidin-1-yl)biphenyl-4-yl)methylcarbamate], the IC50 under setting [2] is over 1000 nM and the IC50 under setting [3] was over 3200 nM.

On to `CC(C)c1ccccc1Oc1ccc(N2CC[C@H](Oc3ncccc3Cl)C2)c(CO)c1` [Compound 1-271, (S)-(2-(3-(3-chloropyridin-2-yloxy)pyrrolidin-1-yl)-5-(2-isopropylphenoxy)phenyl)methanol], for which the IC50 under setting [2] is under 10 nM and the IC50 under setting [3] was found to be 2.01 nM.

As for `Nc1cc(-c2ccccc2)ccc1N1CC[C@@H](Oc2ccc(C(F)(F)F)cn2)C1` [Compound 1-93, (R)-4-(3-(5-(trifluoromethyl)pyridin-2-yloxy)pyrrolidin-1-yl)biphenyl-3-amine], the “hTRPV3 (nM) (Phase 2)” value (Phase 2 current) is “Incomplete Block”. Also, the IC50 (hTRPV3 (nM) (Phase 2), Phase 2 current) is 494 nM and < 320 nM.

On to `N#Cc1ccccc1-c1ccc(N2CC[C@H](Oc3ccc(F)cn3)C2)c(CO)n1` [Compound 1-210, (S)-2-(5-(3-(5-fluoropyridin-2-yloxy)pyrrolidin-1-yl)-6-(hydroxymethyl)pyridin-2-yl)benzonitrile], for which the IC50 is 100 to 1000 nM under setting [2] and 972 nM under setting [3].

As for `CC(C)c1ccccc1Oc1ccc(C2CCN(Cc3cccc(Cl)n3)C2)c(CO)c1` (centres unmarked) [Compound 2-96, (2-(1-((6-chloropyridin-2-yl)methyl)pyrrolidin-3-yl)-5-(2-isopropylphenoxy)phenyl)methanol hydrochloride], the IC50 by setting is: under setting [1], 246 nM; under setting [2], 100 to 1000 nM.

As to `O=C(c1ccc(Cl)cc1)c1ccc(N2CC[C@H](Oc3ncccc3Cl)C2)c(CCO)c1` [Compound 1-291, (S)-(4-chlorophenyl)(4-(3-(3-chloropyridin-2-yloxy)pyrrolidin-1-yl)-3-(2-hydroxyethyl)phenyl)methanone], the IC50 runs as follows: under setting [2], 100 to 1000 nM; under setting [3], about 188 nM; under setting [4], 100 to 1000 nM; under setting [5], about 217 nM.

Turning to `CC(C)(C)NS(=O)(=O)c1cc(-c2ccccc2)ccc1N1CCC(Oc2ccc(C(F)(F)F)cn2)C1` (stereo in doubt) [Compound 1-96, (S)—N-tert-butyl-4-(3-(5-(trifluoromethyl)pyridin-2-yloxy)pyrrolidin-1-yl)biphenyl-3-sulfonamide], the IC50 is, setting by setting: under setting [2], over 1000 nM; under setting [3], over 3200 nM; under setting [4], over 1000 nM; under setting [5], over 3200 nM.

With `Cc1ccc(O[C@H]2CCN(c3ccc(-c4ccccn4)nc3CO)C2)nc1` [Compound 1-244, (S)-(5-(3-(5-methylpyridin-2-yloxy)pyrrolidin-1-yl)-2, 2′-bipyridin-6-yl)methanol], the IC50 runs as follows: under setting [2], over 1000 nM; under setting [3], 4650 nM.

Take `CCc1ccccc1Oc1ccc(C2CC(=O)N(Cc3ccccn3)C2)c(C(N)=O)c1` (centres unmarked) [Compound 2-100, 5-(2-ethylphenoxy)-2-(5-oxo-1-(pyridin-2-ylmethyl)pyrrolidin-3-yl)benzamide]: the IC50 was over 3200 nM under setting [1] and over 1000 nM under setting [2].

The values above are taken from patent US12435061B2 (priority 2020, dated 2025).
